6 compounds from ChEMBL document CHEMBL1201862, “PubChem BioAssay data set” (2004) can be followed below.

The target in one experiment is CAAX prenyl protease 2 (Homo sapiens, UniProt Q9Y256). Nature of the experiment: inhibition of Ras-converting CAAX protease Rce1 – biochemical, yeast membranes, quenched-peptide fluorescence, cherry-pick, dose response (AID 588849).
For experiment [1], the target named is Voltage-gated inwardly rectifying potassium channel KCNH2 (Homo sapiens, UniProt Q12809). The conditions noted are these: Potency.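 Further: confirmatory quantitative high-throughput screen measuring inhibition of hERG channel activity.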
Voltage-gated inwardly rectifying potassium channel KCNH2, sequence (Q12809 whole entry): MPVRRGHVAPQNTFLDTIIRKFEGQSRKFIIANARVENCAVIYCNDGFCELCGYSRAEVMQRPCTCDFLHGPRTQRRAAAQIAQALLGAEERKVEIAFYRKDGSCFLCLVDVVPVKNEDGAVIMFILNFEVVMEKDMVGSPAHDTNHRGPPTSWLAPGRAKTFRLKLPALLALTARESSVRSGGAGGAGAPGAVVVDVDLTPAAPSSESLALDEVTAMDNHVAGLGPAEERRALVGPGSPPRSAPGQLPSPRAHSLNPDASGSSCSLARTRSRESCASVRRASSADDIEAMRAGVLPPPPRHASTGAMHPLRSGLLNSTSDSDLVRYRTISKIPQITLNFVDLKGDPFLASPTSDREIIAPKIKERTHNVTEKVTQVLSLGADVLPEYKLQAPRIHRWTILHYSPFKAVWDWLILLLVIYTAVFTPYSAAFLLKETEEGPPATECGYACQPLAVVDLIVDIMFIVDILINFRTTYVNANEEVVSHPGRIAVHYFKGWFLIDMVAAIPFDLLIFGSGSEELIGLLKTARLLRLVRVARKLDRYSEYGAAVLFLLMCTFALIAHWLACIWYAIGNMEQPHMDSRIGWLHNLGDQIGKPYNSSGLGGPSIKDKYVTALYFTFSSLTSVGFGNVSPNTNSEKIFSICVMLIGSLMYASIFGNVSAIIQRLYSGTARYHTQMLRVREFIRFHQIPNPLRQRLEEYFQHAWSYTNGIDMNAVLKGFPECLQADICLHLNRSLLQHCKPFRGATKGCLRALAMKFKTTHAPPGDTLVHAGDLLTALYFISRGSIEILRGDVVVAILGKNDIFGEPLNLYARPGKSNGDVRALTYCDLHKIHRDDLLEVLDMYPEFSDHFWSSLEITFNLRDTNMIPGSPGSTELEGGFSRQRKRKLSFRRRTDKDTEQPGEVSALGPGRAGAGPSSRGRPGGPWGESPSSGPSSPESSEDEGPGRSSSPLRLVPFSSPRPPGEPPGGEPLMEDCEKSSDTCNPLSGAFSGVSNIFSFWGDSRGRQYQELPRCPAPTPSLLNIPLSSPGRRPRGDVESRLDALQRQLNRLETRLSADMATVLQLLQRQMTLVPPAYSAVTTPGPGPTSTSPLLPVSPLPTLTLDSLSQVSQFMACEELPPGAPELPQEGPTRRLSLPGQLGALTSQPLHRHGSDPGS
A short description of experiment [2]: cells. Format: functional, cell-based.
For experiment [3], the target named is T1, Kappa-type opioid receptor (Homo sapiens, UniProt P41145). The experiment is classed as functional.
T1 sequence (P41145 whole entry): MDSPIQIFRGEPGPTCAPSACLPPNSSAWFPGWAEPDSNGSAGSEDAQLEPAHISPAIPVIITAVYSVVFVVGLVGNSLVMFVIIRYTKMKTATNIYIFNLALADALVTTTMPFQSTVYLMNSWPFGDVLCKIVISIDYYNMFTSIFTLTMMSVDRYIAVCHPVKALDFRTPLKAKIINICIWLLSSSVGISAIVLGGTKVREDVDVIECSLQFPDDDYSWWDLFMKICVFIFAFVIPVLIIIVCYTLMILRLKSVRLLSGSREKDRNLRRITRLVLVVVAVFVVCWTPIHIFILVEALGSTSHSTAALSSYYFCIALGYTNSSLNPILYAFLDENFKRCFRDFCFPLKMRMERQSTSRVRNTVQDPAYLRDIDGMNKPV
The nature of experiment [4]: HepG2 cell cytotoxicity, dose response, cytotoxicity control for non-replicating M. tuberculosis project (AID 489018). The conditions noted are these: Mycobacterium tuberculosis. The experiment is classed as functional.
In experiment [5] the target is Type-1 angiotensin II receptor (Homo sapiens, UniProt P30556). Kind of experiment: antagonism of angiotensin II type 1 receptor – cell-based, uHTS hits, selectivity assay for APJ receptor antagonist project, dose response (AID 463214).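 Further: antagonist potency against angiotensin II stimulated AT1 response.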 Format: functional.
Type-1 angiotensin II receptor, sequence (P30556 whole entry): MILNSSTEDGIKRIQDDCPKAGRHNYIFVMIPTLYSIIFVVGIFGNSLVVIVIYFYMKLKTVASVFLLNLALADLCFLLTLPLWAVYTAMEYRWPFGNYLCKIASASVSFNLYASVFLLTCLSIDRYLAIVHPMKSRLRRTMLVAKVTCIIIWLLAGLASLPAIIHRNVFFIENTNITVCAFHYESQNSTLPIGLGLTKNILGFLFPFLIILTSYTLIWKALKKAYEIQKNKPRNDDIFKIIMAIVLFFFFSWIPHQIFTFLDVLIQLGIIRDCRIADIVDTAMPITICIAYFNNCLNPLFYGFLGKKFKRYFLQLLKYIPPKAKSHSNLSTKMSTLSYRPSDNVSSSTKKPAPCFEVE
Experiment [6] is described as follows: A549 cell cytotoxicity, dose response, cytotoxicity control, plate reader, cherry-pick, antagonist series (AID 743412). Format: functional, cell-based.
Experiment [7] can be described thus: cells. Format: functional, cell-based. This is another data set of the same source.
Experiment [8] in a line: cells. The experiment is classed as functional.
The target in experiment [9] is T2, Beta-galactosidase (Escherichia coli, UniProt Q8VNN2). Format: functional.
T2 sequence (Q8VNN2 whole entry): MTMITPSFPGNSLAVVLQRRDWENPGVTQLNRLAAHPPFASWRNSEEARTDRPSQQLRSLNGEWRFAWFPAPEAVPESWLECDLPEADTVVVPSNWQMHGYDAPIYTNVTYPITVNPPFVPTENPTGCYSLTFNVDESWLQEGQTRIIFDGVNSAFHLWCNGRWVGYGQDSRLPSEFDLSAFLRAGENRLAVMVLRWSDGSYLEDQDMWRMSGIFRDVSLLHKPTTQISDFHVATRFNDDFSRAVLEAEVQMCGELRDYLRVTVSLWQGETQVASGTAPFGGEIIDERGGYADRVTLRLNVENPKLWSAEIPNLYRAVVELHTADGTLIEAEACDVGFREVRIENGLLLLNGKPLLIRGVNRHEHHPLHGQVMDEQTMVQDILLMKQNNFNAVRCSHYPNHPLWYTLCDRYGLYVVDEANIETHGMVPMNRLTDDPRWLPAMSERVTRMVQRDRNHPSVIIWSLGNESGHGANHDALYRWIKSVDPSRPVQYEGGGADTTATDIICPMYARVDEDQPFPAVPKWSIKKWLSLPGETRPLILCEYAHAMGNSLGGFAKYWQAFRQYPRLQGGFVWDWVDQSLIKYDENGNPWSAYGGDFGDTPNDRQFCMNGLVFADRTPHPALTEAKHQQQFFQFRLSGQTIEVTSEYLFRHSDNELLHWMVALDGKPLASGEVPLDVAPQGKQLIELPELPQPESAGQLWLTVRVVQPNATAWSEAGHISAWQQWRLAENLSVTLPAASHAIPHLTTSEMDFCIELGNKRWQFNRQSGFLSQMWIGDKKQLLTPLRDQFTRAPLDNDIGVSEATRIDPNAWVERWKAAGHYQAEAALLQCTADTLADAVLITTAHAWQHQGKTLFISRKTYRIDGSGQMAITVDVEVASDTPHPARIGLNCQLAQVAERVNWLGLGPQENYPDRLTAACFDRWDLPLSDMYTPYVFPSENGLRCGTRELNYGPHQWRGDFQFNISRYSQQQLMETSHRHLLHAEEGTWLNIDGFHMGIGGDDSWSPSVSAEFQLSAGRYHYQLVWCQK
The target in experiment [10] is T2, Beta-galactosidase. Kind of experiment: PubChem AID 485352. The experiment is classed as functional.
Experiment [11] can be described thus: reduction of Shn3 3'UTR-driven luciferase in osteoblasts – cell-based, Clone20 osteoblasts, firefly luciferase, cherry-picked, dose response (AID 624132).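 Further: firefly luciferase luminescence from reporter carrying the Shn3 3'UTR in osteoblasts.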 Format: functional.
Experiment [12] can be described thus: DRD fibroblast viability loss – cell-based, non-viral oncogenic, luminescence, dose response (AID 1934). The experiment is classed as functional. The conditions noted are these: Homo sapiens.
The test system of experiment [13] is BJ. Nature of the experiment: BJ-TERT fibroblast viability loss – cell-based, RAS-independent, luminescence, dose response (AID 1933). The experiment is classed as functional. As to conditions: Homo sapiens.
Experiment [14] deals with Vero. Nature of the experiment: cells. Format: functional, cell-based. As to conditions: Chlorocebus sabaeus.
Experiment [15] relates to BJ. Nature of the experiment: cells. Format: functional, cell-based. The conditions noted are these: Homo sapiens.
A short description of experiment [16]: THP-1 cell cytotoxicity, dose response, cytotoxicity control for non-replicating M. tuberculosis project (AID 489025). Format: functional.
Experiment [17] is described as follows: toxicity toward HepG2 liver cells – cell-based, plate reader, cherry-pick, antagonist series, cytotoxicity control, dose response (AID 743416). Format: functional.
In experiment [18] the test system is Vero. Nature of the experiment: cells. The experiment is classed as functional. The conditions noted are these: Chlorocebus sabaeus.
Experiment [19] addresses T1, Kappa-type opioid receptor. The experiment is classed as functional. This is another data set of the same source.
Experiment [20] in a line: blockers of bursicon-stimulated LGR2 cAMP reporter – cell-based, HEK293, CRE-luciferase reporter, cherry pick, set 2, dose response (AID 743343).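 Further: transfected cells were stimulated with diluted bursicon conditioned medium after compound addition.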 Format: functional.
Experiment [21] in a line: non-specific 3'UTR reporter inhibition in Clone20-Shn3RL – cell-based, Renilla luciferase, cherry-picked, counter-screen for Shn3 inhibitor project, dose response (AID 624133). Format: functional. For orientation: A counterscreen serves to expose hits that act by an unwanted route or on another target.
The next experiment deals with T3, Protein skinhead-1 (Caenorhabditis elegans, UniProt P34707).
T3 sequence (P34707 whole entry): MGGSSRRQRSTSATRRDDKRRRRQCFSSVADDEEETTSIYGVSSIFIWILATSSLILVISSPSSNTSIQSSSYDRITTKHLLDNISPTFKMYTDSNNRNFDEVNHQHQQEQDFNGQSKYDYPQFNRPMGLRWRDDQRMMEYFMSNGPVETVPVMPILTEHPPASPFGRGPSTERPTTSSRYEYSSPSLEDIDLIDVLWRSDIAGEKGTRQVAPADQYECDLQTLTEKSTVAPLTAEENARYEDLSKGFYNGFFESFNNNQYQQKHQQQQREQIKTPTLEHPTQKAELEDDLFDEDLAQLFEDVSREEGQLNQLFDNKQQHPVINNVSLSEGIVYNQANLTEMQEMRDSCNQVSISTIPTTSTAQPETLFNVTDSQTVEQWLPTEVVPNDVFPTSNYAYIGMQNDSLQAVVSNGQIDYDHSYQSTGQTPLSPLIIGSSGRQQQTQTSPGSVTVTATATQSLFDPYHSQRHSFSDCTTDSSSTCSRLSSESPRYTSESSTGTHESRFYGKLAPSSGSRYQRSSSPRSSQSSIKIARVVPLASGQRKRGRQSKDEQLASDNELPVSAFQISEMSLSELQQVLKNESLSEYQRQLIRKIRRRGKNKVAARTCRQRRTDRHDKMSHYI
The experiment is classed as functional.

A short description of experiment [22]: loss of viability in HepG2 cells – cell-based, CellTiter-Glo, cherry-picked, cytotoxicity control for Shn3 inhibitor project, dose response (AID 624134). The experiment is classed as functional. A general note: ATP-based viability assays read luminescence as a measure of living cells.
The nature of experiment [23]: Vero E6 cell cytotoxicity, dose response, cytotoxicity control for non-replicating M. tuberculosis project, secondary assay (AID 492998). As to conditions: Vero C1008. The experiment is classed as functional, VeroE6.
Experiment [24] in a line: viability loss in HEK293 cells – cell-based, plate reader, cherry-picked samples, cytotoxicity control, dose response (AID 743446). Format: functional.
Experiment [25] can be described thus: blockade of melanocortin 4 receptor signaling – cell-based, plate reader, cherry pick, counter-screen for LGR2 antagonist project, dose response (AID 743444).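 Further: transfected HEK 293 cells stimulated with alpha-MSH peptide; potency of inhibitors of the alpha-MSH evoked signal.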 The experiment is classed as functional.
Experiment [26] concerns BJ. Kind of experiment: BJ-TERT-LT-ST fibroblast viability loss – cell-based, RAS-independent, luminescence, dose response (AID 1935).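 Further: BJ fibroblasts immortalized with TERT plus LT and ST oncogenes.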 The conditions noted are these: Homo sapiens. The experiment is classed as functional.
A further experiment has as its system INS1. Nature of the experiment: INS-1E survival protection against cytokine death – cell-based, luminescence, retest, dose response (AID 449756).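 Further: cell death triggered by IL-1 beta plus TNF-alpha plus IFN-gamma mixture; protective hits raise ATP signal compared with cytokine alone wells.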 The conditions noted are these: Rattus norvegicus. Format: functional.
The next experiment deals with T4, Streptokinase A (Streptococcus pyogenes serotype M1, UniProt P10520).
T4 sequence (P10520 whole entry): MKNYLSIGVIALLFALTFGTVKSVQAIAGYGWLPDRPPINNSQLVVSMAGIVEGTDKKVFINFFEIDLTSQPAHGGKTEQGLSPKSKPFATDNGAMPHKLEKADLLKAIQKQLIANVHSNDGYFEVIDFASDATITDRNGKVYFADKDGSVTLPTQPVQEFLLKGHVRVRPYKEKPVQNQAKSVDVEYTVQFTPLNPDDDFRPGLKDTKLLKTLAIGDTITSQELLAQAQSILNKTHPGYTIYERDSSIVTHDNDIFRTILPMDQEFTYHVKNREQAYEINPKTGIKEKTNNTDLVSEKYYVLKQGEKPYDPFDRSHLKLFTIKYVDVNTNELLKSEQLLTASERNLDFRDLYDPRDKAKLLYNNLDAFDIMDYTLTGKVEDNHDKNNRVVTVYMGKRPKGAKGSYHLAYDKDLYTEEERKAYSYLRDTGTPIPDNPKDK
Kind of experiment: viability-normalized secreted streptokinase activity reduction – plasminogen activation absorbance, OD405, dose response (AID 1914).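 Further: secreted streptokinase activity via plasminogen activation per viability signal from cell pellet.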 Format: functional, Streptococcus pyogenes M1 GAS.

The subject of experiment [27] is Streptococcus sp. 'group A'. Nature of the experiment: Streptococcus pyogenes SK(-)GAS viability under kanamycin – luminescence, BacTiterGlo, confirmation, counter-screen for streptokinase expression inhibitor project, dose response (AID 1900). Format: functional, organism-based.
The next experiment relates to Streptococcus. Kind of experiment: GAS UMAA2166 growth inhibition – luminescence, BacTiterGlo, counter-screen for streptokinase expression inhibitor project, dose response (AID 1915).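 Further: potency for reduction of bacterial viability or growth.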 The experiment is classed as functional, organism-based.
Another experiment has as its system Escherichia coli. Nature of the experiment: microbe, parasite or virus in culture.
In another experiment the target is T5, Caspase-6 (Homo sapiens, UniProt P55212).
T5 sequence (P55212 whole entry): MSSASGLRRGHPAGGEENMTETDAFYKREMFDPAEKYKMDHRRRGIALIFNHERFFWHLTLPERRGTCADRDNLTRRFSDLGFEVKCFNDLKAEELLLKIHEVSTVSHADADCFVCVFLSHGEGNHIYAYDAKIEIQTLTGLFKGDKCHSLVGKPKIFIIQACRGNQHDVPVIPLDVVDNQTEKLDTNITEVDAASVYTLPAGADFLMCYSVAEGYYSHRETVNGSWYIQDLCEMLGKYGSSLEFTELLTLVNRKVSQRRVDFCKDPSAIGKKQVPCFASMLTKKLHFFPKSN
Nature of the experiment: inhibition of CASP6 peptide cleavage – biochemical, VEID-R110 fluorescence, cherry-pick, dose response (AID 720632).

The structures appear in SMILES notation. pIC50: −log10 of the molar value. Activity calls are given as the source filed them. Bounds are passed on as bounds.

CAAX prenyl protease 2, sequence (Q9Y256 whole entry): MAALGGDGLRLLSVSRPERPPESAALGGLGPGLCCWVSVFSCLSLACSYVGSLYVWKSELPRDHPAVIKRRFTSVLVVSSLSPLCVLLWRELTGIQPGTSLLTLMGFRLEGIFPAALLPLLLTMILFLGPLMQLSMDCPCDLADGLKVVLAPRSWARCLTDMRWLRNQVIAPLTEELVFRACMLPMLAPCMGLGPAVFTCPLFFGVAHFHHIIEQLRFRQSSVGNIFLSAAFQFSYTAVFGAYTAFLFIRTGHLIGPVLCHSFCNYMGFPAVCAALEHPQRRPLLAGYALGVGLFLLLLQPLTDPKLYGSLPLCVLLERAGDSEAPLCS

For orientation: AC50 means the concentration giving half of the maximal activity seen. Take `O=C(CCNS(=O)(=O)c1ccc2nc(O)oc2c1)NCc1ccccc1`: the AC50 on CAAX prenyl protease 2 was > 100 µM (inactive).

As to `N#CC(Cc1ccc(O)c(O)c1)C(=O)N1CCc2ccccc21` (configuration not stated), the AC50 in [1] was 15.8 µM (inconclusive).

For orientation: EC50 means the concentration that produces a half-maximal response. The term IC50 denotes the point on the concentration scale where inhibition reaches its midpoint. One may read the CC50 as the concentration at which the toxic effect on the cells reaches its halfway point. For orientation: pIC50 means the IC50 on a negative log10 scale, so that one unit is a factor of ten. Low readings indicate a large IC50, high ones a small IC50. Consider `O=C(Nc1nc2c(F)cc(F)cc2s1)c1ccccn1`, for which the EC50 was > 350 µM (not active) in the experiment “cells [2]”; 7.18 µM (active) in the experiment “cells [7]”; > 31.5 µM (inactive) on Beta-galactosidase [9]; > 40 µM (inactive) at Beta-galactosidase [10]; 1.63 µM (active) in [12]; 11.2 µM (active) in the experiment on BJ [13]. In addition, the EC50 in the experiment on BJ [15] was 78.2 µM (active); in the experiment with BJ [26], > 150 µM (not active). The concentration for half-maximal inhibition (IC50) in experiment [3] was 8.25 µM (active); in experiment [5], 9.46 µM (active); in “cells [8]”, 420 nM (active); in the experiment on Vero [14], > 25 µM (active); at Protein skinhead-1 it was > 100 µM (inactive). The CC50 was 4.95 µM (active) in [4], 2.14 µM (active) in experiment [16], 7.89 µM (active) in the experiment on Vero [18] and 2.12 µM (active) in experiment [23]. In addition, the AC50 in experiment [6] is 2.66 µM (active); in [11] it was 6.69 µM (active); in [17] it was 2.09 µM (active); in experiment [20], 4.05 µM (active); in experiment [21] it was 2.21 µM (active); in experiment [22] it was 15.2 µM (active). Moreover, the AC50 is 10.8 µM (active) in experiment [24], 3.17 µM (active) in experiment [25] and 2.08 µM (active) with INS1. Also, the pIC50 in [19] is below 4.49.

Regarding `Cc1ccc(NNC(=O)c2cc(C(C)(C)C)nn2Cc2ccccc2)cc1`, the IC50 in experiment [5] was 3.81 µM (active). Further, the EC50 is > 40 µM (inactive) at Beta-galactosidase [10], 29.5 µM (active) at Streptokinase A, 17.5 µM (active) in experiment [27] and > 150 µM (not active) in the experiment with Streptococcus.

As to `Cc1csc(NC(=O)c2c(-c3c(Cl)cccc3Cl)noc2C)n1`, in the experiment with Escherichia coli, the AC50 is 32.8 µM (active).

Turning to `O=C(N/N=C/c1cn(Cc2ccccc2)c2ccccc12)c1cc(O)cc(O)c1`, the AC50 was 12.6 µM (active) at CAAX prenyl protease 2 and 3.09 µM (active) on Caspase-6.
